Data published in a melting point compilation (Tetko et al.; mined from patent text by program, amines drawn as free bases though some values may be those of a salt).

| Compound | melting point |
| --- | --- |
| CC(C)(C)[C@H]1CC[C@H](CCC(=O)N2C(=O)OC[C@@H]2Cc2ccccc2)CC1 | 132 to 135 °C |
| Cc1ccc(-n2ccc3c(Cl)nnc(Cl)c32)c(C)c1 | 148 to 149 °C |
| NC1=NC(c2ccc(OC(F)(F)F)cc2)(c2cccc(-c3cncc(F)c3)c2)C2=NCCON12 (stereo unspecified) | 120 to 135 °C |
| N#Cc1cc2c(Nc3cccc(Cl)c3)ncnc2[nH]1 | 284 to 287 °C |
| C[C@]1(CN2CCC(c3ccccc3)CC2)Cn2cc([N+](=O)[O-])nc2O1 | 159 to 164 °C |
| CCC(C)(COc1nn2ncnc2cc1C)CS(N)(=O)=O (stereo unspecified) | 189 to 190 °C |
| CC(C(=O)O)C(=O)Nc1cccc(S(=O)(=O)n2c(=O)[nH]c3cc(Cl)ccc3c2=O)c1 (stereo unspecified) | 187 to 188 °C |
| COc1cc(C=NC2CCCCC2)c([N+](=O)[O-])cc1OC | 160 to 161 °C |
| COc1cc(OC)nc(C(C(N)=O)c2cccc(Cl)c2)n1 (stereo unspecified) | 118 to 119 °C |
| CN(C)c1ccc(C=Cc2ccc(S(=O)(=O)CCCCCCCCCCCO)cc2)cc1 | 153 to 155 °C |
| CCN(CC)CC1CN=C(N)O1 (stereo unspecified) | 90 °C |
| CC(C)CCCC(=S)SCC(C)C | 43 to 44 °C |
| CC(C)(C)OC(=O)c1ncn2c1cc(C(=O)N1CCN(C3CC3)CC1)c1cc(Cl)ccc12 | 229 to 233 °C |
| COC(=O)c1cc(F)c(-n2c(=O)[nH]n(C)c2=O)cc1F | 156 °C |
| COC(=O)c1ccc2ncccc2c1C(=O)OC | 124 to 125 °C |
| CSc1ccc(/C=C2/C(C)=C(CC=NO)c3cc(F)ccc32)cc1 | 146 to 150 °C |
| Cn1nc(-c2c(F)cccc2Cl)nc1-c1cc(-c2ccc(OC(F)(F)F)cc2)sc1Br | 135 to 136 °C |
| COc1ccc(Oc2cccc(C)c2)c(NS(C)(=O)=O)c1 | 87 to 88 °C |
| Nc1ccc(NC2CCCCC2)cc1 | 59 to 61 °C |
| CCC(C)N1CCc2cnc3ccnn3c21 (stereo unspecified) | 199 °C |
| CCCCc1cccc2[nH]c(C(=O)OCC)cc(=O)c12 | 132 to 133 °C |
| COC1(c2cc(F)cc(OCc3ccc4c(c3)C(=O)N(C)S4(=O)=O)c2)CCOCC1 | 155 to 156 °C |
| Cn1nc(-c2cnc3[nH]cc(C(=O)NC4CCCCC4)c3n2)c2ccc(Cl)cc21 | 321 to 323 °C |

| Compound | melting point |
| --- | --- |
| OCc1cn2c(n1)CN=C(c1ccccn1)c1cc(Cl)ccc1-2 | 206 to 207 °C |
| Cc1cc(=O)c2ccccc2s1 | 70 °C |
| Cc1ccc(-n2nc(C(F)F)cc2-c2ccc(S(C)(=O)=O)cc2)cc1Br | 136 to 138 °C |
| CCCCN(CC1Cc2cc(Cl)cc(Cl)c2O1)C(=O)n1ccnc1 (stereo unspecified) | 98 to 100 °C |
| CC(=O)c1ccc(Br)c(S(=O)(=O)Cl)c1 | 107 °C |
| NC(=O)c1[nH]cnc1OC(=O)C=Cc1ccccc1 | 170 to 175 °C |
| CCOC(=O)Cc1ccc2c(c1)sc1cc(N(C)C)ccc12 | 115 to 120 °C |
| CC(CCC(=O)O)C1CCC2C3=CC=C4C(C)(C)C(O)CCC4(C)C3CCC21C (stereo unspecified) | 210 to 213 °C |
| Cc1cccc2[nH]c(-c3ccccc3[N+](=O)[O-])nc12 | 167 to 168 °C |
| CS(=O)(=O)c1ccc(-c2cnn(C3CCCCC3)c(=O)c2-c2ccc(F)cc2)cc1 | 169 to 171 °C |
| CN1C(=O)COc2cccc3nc4c(c1c23)CCCC4 | 176 to 178 °C |
| C=CC(=O)Nc1cccc2c1sc1c(Nc3cccc(Br)c3)c(C#N)cnc12 | 286 to 287 °C |
| CC(=O)Nc1cccc2cc(S(=O)(=O)Nc3onc(C)c3C)ccc12 | 210 to 212 °C |
| COc1ccc(S(=O)(=O)C2(C(=O)O)CCN(Cc3ccc(OCCN4CCCCC4)cc3)CC2)cc1 | 114 °C |
| O=S(=O)(c1ccc(F)cc1)C(F)(F)C(F)(F)C(F)(F)C(F)(F)C(F)(F)C(F)(F)C(F)(F)C(F)(F)S(=O)(=O)c1ccc(F)cc1 | 109 to 110 °C |
| CCCCCCCC1=CCC(c2cc(F)c(F)c(F)c2)C=C1 (stereo unspecified) | 14 °C |
| CSc1nc(Cl)cc2cnc(C)n12 | 153 to 155 °C |
| O=[N+]([O-])c1cc(Br)cc2[nH]c(CCl)nc12 | 148 to 150 °C |
| CS(=O)(=O)c1nnc(-c2ccnc(Nc3cccc(C(F)(F)F)c3)c2)o1 | 105 to 106 °C |
| CNC(=O)NC(=S)N1N=C(c2ccc([N+](=O)[O-])cc2)c2cc3c(cc2CC1C)OCO3 (stereo unspecified) | 164 °C |
| O=C(CCl)N[C@H]1CC[C@H](O)CC1 | 149 to 151 °C |
| Cc1cc(S(=O)(=O)NC(C)C)c2c(C)ccc(C(C)C)cc1-2 | 128 to 130 °C |
| CON=C(C#N)C(=O)NC(=O)NC1CC1 | 182 °C |

| Compound | melting point |
| --- | --- |
| NC(=C[N+](=O)[O-])N1CCCC1 | 120 to 125 °C |
| COC(=O)c1cc2c(Br)cccc2n1C | 85 to 86 °C |
| O=c1ccn2c(c1O)C(c1ccc(Br)cc1)OCC2 (stereo unspecified) | 200 to 212 °C |
| CC(=O)N[C@@H](CSC(=O)c1ccccc1)C(=O)NCCSC(=O)C(C)(C)C | 133 to 134 °C |
| COc1nc(SC)nc(OC)c1C=CC(C)=O | 112 °C |
| CC(=O)SCC(C)C(=O)Nc1cncc(C(=O)O)c1 (stereo unspecified) | 154 to 158 °C |
| O=C1c2ccccc2-n2cnc(C=NO)c2[C@@H]2CCCN12 | 285 °C |
| CCCCCCCCCCNC(=O)c1cccc([N+](=O)[O-])c1 | 86 to 88 °C |
| CCOC(=O)c1[nH]c(C)c(CC(C)C)c1C | 115 to 117 °C |
| O=C1CC2CC(n3c(=O)[nH]c4ccccc43)CC2C1 (stereo unspecified) | 246 to 248 °C |
| CCc1cccc(C)c1CNc1cc(C(=O)N(C)C)cn2c(C)nnc12 | 201 °C |
| CC(C)Nc1nc2cc(Cl)c(Cl)cc2n1C1OC(CO)C(O)C1O (stereo unspecified) | 197 to 199 °C |
| COC(C)=CC(=O)Nc1cccc(OC(C)=O)c1 | 111 °C |
| O=C(Nc1cc(C(F)(F)F)ccc1N1CCCCCC1)c1ccncc1 | 138 to 139 °C |
| Cc1nnc2n1-c1sc(CCc3ccc(CC(C)C)cc3)cc1C(c1ccccc1Cl)=NC2C (stereo unspecified) | 130 to 132 °C |
| OCC1(c2ccccc2)CCCC1 | 41 to 44 °C |
| CSC1CC(=O)N1CC(=O)CCCCCCCc1ccccc1 (stereo unspecified) | 48 to 51 °C |
| CC(C)OC(=O)c1cc(-c2nn(C)c(C(F)(F)F)c2Cl)c(F)cc1Cl | 69 °C |
| Cc1cc(-c2cnn3c(C(F)(F)F)cc(-c4ccc(Br)cc4)nc23)ccn1 | 226 °C |
| CCn1cc(-c2ccncn2)cc(Br)c1=O | 195 to 197 °C |
| O=C1COc2cc(NC(=O)C(=O)N3CCC(Cc4ccc(F)cc4)CC3)ccc2N1 | 209 to 212 °C |
| c1cc2c(c(N3CCNCC3)n1)CCO2 | 89.5 °C |

Second part, the compound after the results:

| melting point | Compound |
| --- | --- |
| 183 to 184 °C | CCCOCCOc1ccc(-c2ccc3c(c2)C=C(C(=O)Nc2ccc(CN(C)C4CCOCC4)cc2)CCS3(=O)=O)cc1Cl |
| 229 °C | CCOC(=O)c1ccc(COCc2csc3nc(C(=O)NCc4ccccc4)[nH]c(=O)c23)cc1 |
| > 300 °C | Cn1ncc2[nH]c3ccc(NC(=O)c4ccccc4)cc3c(=O)c21 |
| 207 to 209 °C | O=C(Nc1ccc(Cl)cc1)c1ccc2cccnc2c1O |
| 77 to 80 °C | COc1ccc(C(=O)Nc2ccc3ccc(OCCN(C)C)nc3n2)cc1 |
| 192 to 194 °C | CCN(CC)C(=O)c1cc(-c2ccccc2)c(=O)n2c1-c1cc(Cl)ccc1CN2 |
| 281 to 283 °C | CC(=O)NNc1nc(C(F)(F)F)nc(-c2ccc(S(C)(=O)=O)cc2)c1-c1ccccc1F |
| 85 to 87 °C | CN(C)c1cccc(Oc2ncccc2C(=O)NCc2ccccc2Cl)c1 |
| 75 to 77 °C | CCCC(=O)c1cnc2c(OCCOC)cccc2c1Nc1ccccc1C |
| 161 to 162 °C | Cc1cc(OC2CCS(=O)(=O)CC2)cc(C)c1-c1cccc(COc2ccc(C3CC3C(=O)O)cc2)c1 (stereo unspecified) |
| 94 to 96 °C | CCOC(=O)C=Cc1cc(-c2csc(-c3ccc(OCC)c(OCC)c3)n2)cc(C(=O)OCOC)c1OCOC |
| 144 to 145 °C | CCCCc1cc(C(O)=S)cc(N)c1C(=O)c1ccccc1 |
| 211 to 212 °C | CCCOc1ccc(F)c2c(=O)c(-c3ccc(OC)cc3)c(CN3CCN(c4ccccn4)CC3)[nH]c12 |
| 100 to 102 °C | CCSC1=C(c2ccc(O)cc2)C(=O)c2ccc(O)cc21 |
| 112 °C | CN(C)C(=O)Sc1ccc(C(=O)c2ccccc2C#N)cc1 |
| 177 to 179 °C | N=c1n[n+]([O-])c2ccccc2n1OC(=O)c1ccccc1 |
| 105 to 107 °C | O=C(Oc1ccccc1)N1CCC2(CC1)c1ccccc1Oc1ccccc12 |

| melting point | Compound |
| --- | --- |
| 147 °C | CNC(=O)Nc1cccc(OC(=O)N(CCC#N)c2ccccc2)c1 |
| 154 to 155 °C | CCCCCCCCS(=O)(=O)Nc1cc(C(=O)Nc2ccccc2)ccc1OC |
| 121 to 122 °C | CC(=O)N1CCSC1Cc1cnn(-c2ccccc2)c1-c1ccc(Cl)cc1 (stereo unspecified) |
| 104 to 105 °C | c1ccc(C2(c3ccccc3)SCCS2)cc1 |
| 234 to 238 °C | CC(=O)NNc1c(C)cnc2c(NC(=O)c3c(Cl)cccc3Cl)ccc(C)c12 |
| 88 °C | Cc1cccc(-c2nc3ccc(OCCCl)cc3n2Cc2ccccc2)c1 |
| 78 to 79 °C | CC(C)C[C@@H](COCC(N)=O)NC(=O)OCc1ccccc1 |
| 110 to 112 °C | COc1ccc([C@H]2SC=C(c3ccccc3)N(CCN(C)C)C(=O)[C@H]2O)cc1 |
| 157 to 161 °C | O=c1c2c(n(-c3cccc(Cl)c3)c3ncccc13)CCN(Cc1ccccc1)C2 |
| 256 to 267 °C | CC(C)Oc1ccc2nc3ccc(C(=O)O)cn3c(=O)c2c1 |
| 146 to 147 °C | COc1cc(C(=O)O)ccc1Cc1cn(C(C)C(=O)N(C)C)c2ccc(C(=O)NCC3CCCC3)cc12 (stereo unspecified) |
| 156 to 157 °C | CCOc1ccc(C(=O)CCC(=O)Nc2cc(OCc3ccccc3)cc(-c3ccccc3)n2)cc1OCC |
| 155 to 157 °C | COc1cc(CNC(=O)c2nc3cnn(CCCc4ccccc4)c3c(=O)[nH]2)ccc1F |
| 75 to 76 °C | CCOC(=O)CCCN(O)C(=O)NCCc1ccc(OC)c(OC)c1 |
| 110 to 111 °C | CCCCCCCCCCCCNC(=O)COc1ccc(OC(=O)c2ccccc2)cc1[N+](=O)[O-] |
| 101 to 102 °C | C=C(C)C(=O)Oc1ccc(S(=O)(=O)Nc2ccccc2)cc1 |
